Laboratory results taken from PMC6327044, “A chemical biology screen identifies a vulnerability of neuroendocrine cancer cells to SQLE inhibition” (Nature Communications, 2019).

Assays:
Experiment in all cases: cells
Set-up in all cases: species or system panel of 482 human cancer cell lines; ATPLite luminescence growth inhibition after treatment, nine-point dilution curve, 482 cancer cell lines, 384-well
Conditions in all cases: 72 h, recommended growth medium
A427_LUNG = tested on: A427_LUNG
Description: (§1) Cells were seeded in recommended growth media in black 384-well tissue culture treated plates at 500 cells per well. Cells were equilibrated in assay plates via centrifugation and placed in incubators for 24 h before treatment. […] Treated assay plates were incubated with compounds for 72 h and subsequently were developed for endpoint analysis using ATPLite. Each compound was assessed using a nine-point dilution curve. Cells were defined as sensitive to a given compound based on GI75 < 2 μM with manual quality control of curve fit. GI75 is defined as a drug concentration that causes a 75% reduction in assay readout relative to dimethyl sulfoxide (DMSO)-treated controls. To identify novel cancer vulnerabilities, we screened a panel of 482 cell lines with a diverse set of metabolic inhibitors. […] Given that SCLC is thought to arise from neuroendocrine cells in the lung[9], we tested the NB-598 sensitivity in a panel of 42 SCLC cell lines. We calculated a quantitative metric of sensitivity for each cell line based on the area under the curve (AUC) of the mu/mu.max curve to more accurately capture the potency and extent of NB-598 effects. […] We categorized the SCLC cell lines as sensitive (5/42), moderate (11/42), and insensitive (26/42) (Fig. 1c and Supplementary Data 2) and focused all subsequent efforts on this indication. […] To further understand the patterns of sensitivity, we conducted RNA sequencing (RNA-Seq; Supplementary Data 3) and proteomic (Supplementary Data 4) characterization of the SCLC panel to identify unbiased expression signatures associated with enhanced NB-598 response (Supplementary Fig. 1 and Supplementary Fig. 2). Given the growing understanding that SCLC tumors can be further subdivided based on the status of lineage-defining transcription factors, ASLC1 and NEUROD1, we specifically investigated NB-598 response as the function of ASCL1 and NEUROD1 expression levels. […] To further dissect the NB-598 response within the ASCL1-high/NEUROD-low subset of 25 cell lines, we identified RNA-Seq and proteomics expression signatures associated with NB

[1] = tested on: CAL27_UPPER_AERODIGESTIVE_TRACT
Description: as §1

HCC1195_LUNG = tested on: HCC1195_LUNG
Description: as §1

HCC1500_BREAST = tested on: HCC1500_BREAST
Description: as §1

HT115_LARGE_INTESTINE = tested on: HT115_LARGE_INTESTINE
Description: as §1

[2] = tested on: KG1_HAEMATOPOIETIC_AND_LYMPHOID_TISSUE
Description: as §1

LU139_LUNG = tested on: LU139_LUNG
Description: as §1

NCIH1666_LUNG = tested on: NCIH1666_LUNG
Description: as §1

NCIH2171_LUNG = tested on: NCIH2171_LUNG
Description: as §1

NCIH810_LUNG = tested on: NCIH810_LUNG
Description: as §1

NCIH841_LUNG = tested on: NCIH841_LUNG
Description: as §1

[3] = tested on: OCILY8_HAEMATOPOIETIC_AND_LYMPHOID_TISSUE
Description: as §1

SKBR3_BREAST = tested on: SKBR3_BREAST
Description: as §1

[4] = tested on: SUDHL2EPST_HAEMATOPOIETIC_AND_LYMPHOID_TISSUE
Description: as §1

TE4_OESOPHAGUS = tested on: TE4_OESOPHAGUS
Description: as §1

TE6_OESOPHAGUS = tested on: TE6_OESOPHAGUS
Description: as §1

[5] = tested on: TMD8_HAEMATOPOIETIC_AND_LYMPHOID_TISSUE
Description: as §1

`CCN(C/C=C/C#CC(C)(C)C)Cc1cccc(OCc2cc(-c3ccsc3)cs2)c1` [NB-598] was tested, and the GI50 (A427_LUNG) was 0.00555 µM, the GI50 [1] was 12.4 µM and the GI50 (HCC1195_LUNG) was 2740 µM. The GI50 (HCC1500_BREAST) was 1.48 µM, the GI50 (HT115_LARGE_INTESTINE) was 2.72 µM and the GI50 [2] was 23.9 µM. For the same molecule, the GI50 (LU139_LUNG) was 0.0321 µM, the GI50 (NCIH1666_LUNG) was 0.0249 µM and the GI50 (NCIH2171_LUNG) was 2.27 µM. The GI50 (NCIH810_LUNG) was 0.00733 µM, the GI50 (NCIH841_LUNG) was 13.2 µM and the GI50 [3] was 9.19 µM. The GI50 (SKBR3_BREAST) was 7.19 µM, the GI50 [4] was 0.0257 µM and the GI50 (TE4_OESOPHAGUS) was 19.5 µM. The GI50 (TE6_OESOPHAGUS) was 9.28 µM and the GI50 [5] was 0.131 µM.
